From ChEMBL document CHEMBL3046849, “Composition of essential oil of Chinese Chenopodium ambrosioides and insecticidal activity against maize weevil, Sitophilus zeamais” (2011)
Values after ≈ are worked out from the molar mass of the structure shown.

Legend:
Assay type in all cases: functional
[1] = test system: Sitophilus zeamais; experiment: Contact toxicity against adult Sitophilus zeamais assessed as mortality applied to dorsal thorax of insect measured daily for 1 week; conditions: 168 h
[2] = test system: Sitophilus zeamais; experiment: Insecticidal activity against adult Sitophilus zeamais assessed as mortality measured daily for 1 week by fumigation assay; conditions: 168 h
[3] = test system: Sitophilus zeamais; experiment: Insecticidal activity against adult Sitophilus zeamais assessed as mortality after 24 hr by fumigation assay

Row | Structure (SMILES) | LD50 [1] [mg/kg] | LC50 [2] [µg/mL] | LC50 [3] [µg/mL]
1 | CC1=CC2C(CC1)C2(C)C (configuration not stated) [2-CARENE] | 3.55 | 14 (≈ 103 µM) | –
2 | CC(C)[C@@]12C=C[C@@](C)(CC1)OO2 [(Z)-ASCARIDOLE] | 0.86 | 0.84 (≈ 4.99 µM) | –
3 | CC1=CC=C(C(C)C)CC1 [ALPHA-TERPINENE] | 3.47 | 5.46 (≈ 40.1 µM) | –
4 | CBr [BROMOMETHANE] | – | – | 0.67 (≈ 7.06 µM)
5 | CC(C)[C@]12CC[C@@]3(C)O[C@H]3[C@H]1O2 [ISOASCARIDOLE] | 2.16 | 2.45 (≈ 14.6 µM) | –
6 | Cc1ccc(C(C)C)cc1 [P-CYMENE] | > 23.2 | 23.3 (≈ 173 µM) | –
7 | P [PHOSPHINE] | – | – | 0.006 (≈ 0.176 µM)
